“And” between values parts separate entries of the source, which are not always exact repeats. Equal entries are not always repeated. “Also recorded” adds a separate entry of the source.
Target: ^MtbLcp1 (Mycobacterium tuberculosis, UniProt P96872)
Assay: Intrinsic tryptophan fluorescence (ITF) ligand binding of linker unit analogues to recombinant ^MtbLcp1
Settings: for Bmax: ITF saturation binding, change in fluorescence emission at λ = 341 nm; for Kd: ITF, single-site saturation model, 25°C, 0.026 µM ^MtbLcp1, λ = 341 nm, read-out: equilibrium dissociation constant, KD
Experimental: Intrinsic tryptophan fluorescence (ITF) ligand binding experiments of ^MtbLcp1 with saccharide ligands were conducted on a Hitachi F7000 fluorescence spectrophotometer with the temperature thermostatically regulated to 25°C. ^MtbLcp1 was diluted to 0.026 µM with dialysis buffer, and fluorescence spectra were measured at an excitation wavelength of 280 nm and emission wavelength of 300 to 400 nm with an excitation and emission slit width of 5 nm using a 500-µl crystal cuvette. ITF maximum (Femission^max) was recorded at λ = 341 nm, providing a basal Femission coordinate for the collection of subsequent ITF data. Increasing concentrations of ligands representing the linker unit (compounds 1 to 4) were added to the cuvette. The change in fluorescence emission (ΔFemission) was calculated by subtracting Femission (recorded 2 min after each ligand addition) from Femission^max. Changes of background fluorescence observed upon addition of equivalent volumes of dialysis buffer (the solvent in which compounds 1 to 4 were dissolved) were subtracted from the overall change in fluorescence, and the data were then plotted against ligand concentration, [L] (3 independent biological experiments). A plot of ΔFemission at λ = 341 nm versus [L] was fitted to a one-site specific binding equation using GraphPad Prism 5 software: ΔFemission = Fmax × [L]/(KD + [L]).

Sequence of ^MtbLcp1 (P96872 entry or part of it): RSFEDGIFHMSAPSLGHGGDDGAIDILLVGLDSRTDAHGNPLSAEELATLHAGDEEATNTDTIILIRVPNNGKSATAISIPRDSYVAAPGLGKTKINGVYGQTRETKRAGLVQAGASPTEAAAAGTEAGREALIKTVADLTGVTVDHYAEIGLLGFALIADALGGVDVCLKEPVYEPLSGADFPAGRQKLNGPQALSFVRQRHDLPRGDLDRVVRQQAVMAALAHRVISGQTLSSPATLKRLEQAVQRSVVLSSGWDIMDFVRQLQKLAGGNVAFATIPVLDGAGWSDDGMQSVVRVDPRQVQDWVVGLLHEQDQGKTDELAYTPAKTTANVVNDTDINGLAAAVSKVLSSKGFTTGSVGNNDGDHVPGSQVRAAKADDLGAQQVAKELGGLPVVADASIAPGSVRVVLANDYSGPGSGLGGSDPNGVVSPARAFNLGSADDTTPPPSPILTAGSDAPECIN

Compound	Bmax	Kd	fold increase in affinity (tetrasaccharide ligand versus linker unit disaccharide (compound 1))	fold decrease in binding affinity (additional Galf residue, versus compound 2) [fold]	binding affinity toward ^MtbLcp1 in words (ITF assays, above background fluorescence)
CCCCCCCCO[C@H]1O[C@H](CO)[C@@H](O)[C@H](O[C@@H]2O[C@@H](C)[C@H](O)[C@@H](O)[C@H]2O)[C@H]1NC(C)=O [compound 1, octyl α-L-rhamnopyranosyl-(1→3)-2-acetamido-2-deoxy-α-D-glucopyranoside]	1448	57.7 µM			
CCCCCCCCOC1OC(CO)C(O)C(OC2OC(C)C(OC3OC(C(CO)OC4OC(C(O)CO)C(O)C4O)C(O)C3O)C(O)C2O)C1NC(C)=O [compound 2, octyl-β-D-galactofuranosyl-(1→5)-β-D-galactofuranosyl-(1→4)-α-L-rhamnopyranosyl-(1→3)-2-acetamido-2-deoxy-α-D-glucopyranoside]	1585	5.13 µM	~ 10 fold		
CCCCCCCCOC1OC(CO)C(O)C(OC2OC(C)C(OC3OC(C(CO)OC4OC(C(O)COC5OC(C(O)CO)C(O)C5O)C(O)C4O)C(O)C3O)C(O)C2O)C1NC(C)=O [compound 3, octyl-β-D-galactofuranosyl-(1→6)-β-D-galactofuranosyl-(1→5)-β-D-galactofuranosyl-(1→4)-α-L-rhamnopyranosyl-(1→3)-2-acetamido-2-deoxy-α-D-glucopyranoside]	1498	20.4 µM		4	
CCCCCCCCOC1OC(C)C(OC2OC(C(O)CO)C(O)C2O)C(O)C1O [compound 4, D-Galf-β(1→4)-L-Rhap]	177 and ~ 177.6	97.6 µM and ~97.6 µM			no significant binding affinity (above background); also recorded: no recordable affinity

From article PMC4981717, “Lcp1 Is a Phosphotransferase Responsible for Ligating Arabinogalactan to Peptidoglycan in Mycobacterium tuberculosis” (mBio, 2016)
